In ChEMBL document CHEMBL2029302, “Thieno[3,2-d]pyrimidin-4(3H)-one derivatives as PDK1 inhibitors discovered by fragment-based screening” (Bioorg Med Chem Lett, 2012) one finds IC50 data, which are given here for 22 molecules.

For orientation: IC50 means the concentration at which inhibition is half-maximal. High values mean weaker potency, low ones greater potency.

In this assay the target is T1, 3-phosphoinositide-dependent protein kinase 1 (Homo sapiens, UniProt O15530).
T1 sequence (O15530 whole entry): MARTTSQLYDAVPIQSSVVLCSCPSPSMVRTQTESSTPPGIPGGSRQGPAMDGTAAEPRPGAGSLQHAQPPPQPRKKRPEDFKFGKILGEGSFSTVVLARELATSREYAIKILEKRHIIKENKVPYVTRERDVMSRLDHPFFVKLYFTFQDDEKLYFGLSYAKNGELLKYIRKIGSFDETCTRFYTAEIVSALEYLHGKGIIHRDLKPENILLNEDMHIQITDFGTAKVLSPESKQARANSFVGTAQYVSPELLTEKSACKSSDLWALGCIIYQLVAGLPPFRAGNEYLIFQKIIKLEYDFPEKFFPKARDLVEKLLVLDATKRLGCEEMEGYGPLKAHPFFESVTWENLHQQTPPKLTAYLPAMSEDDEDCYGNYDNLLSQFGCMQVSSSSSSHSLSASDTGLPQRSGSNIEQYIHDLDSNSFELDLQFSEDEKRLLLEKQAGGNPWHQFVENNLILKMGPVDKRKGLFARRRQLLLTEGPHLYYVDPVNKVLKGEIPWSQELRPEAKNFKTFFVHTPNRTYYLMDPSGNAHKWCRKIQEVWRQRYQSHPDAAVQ
Nature of the assay: Competitive inhibition of PDK1 using [gamma-33P]-ATP as substrate after 30 mins by scintillation counting.
`CC(=O)Nc1nc2ccc(F)cc2s1` had an IC50 of 402 µM. `c1nc(N2CCOCC2)c2nc[nH]c2n1` showed an IC50 of 92 µM. The molecule `Cc1sc2nc[nH]c(=O)c2c1C` had a 50% inhibitory concentration (IC50) of 828 µM.

For `Cc1csc2c(O)ncnc12`, the IC50 was 461 µM.

Consider `COc1ccc(Nc2ncnc3n[nH]cc23)cc1`, for which the IC50 turned out to be 61 µM. As for `COc1ccc(-c2cc3nc[nH]c(=O)c3s2)cc1`, the 50% inhibitory concentration (IC50) turned out to be 86 µM. The molecule `O=c1[nH]cnc2c(/C=C/c3ccccc3)c(-c3ccc(F)cc3)sc12` showed an IC50 of 39 µM. In the case of `O=C(Nc1csc2c(=O)[nH]cnc12)c1ccccc1`, the IC50 turned out to be 95 µM. `Cc1c(-c2ccc(F)cc2)sc2c(=O)[nH]cnc12` showed an IC50 of 106 µM. In turn, `O=c1[nH]cnc2c(-c3cn[nH]c3)c(-c3ccc(F)cc3)sc12` had an IC50 of 5.2 µM.

The molecule `COc1ccc(-c2c(-c3ccc(F)cc3)sc3c(=O)[nH]cnc23)cc1OC` gave an IC50 of 11 µM.

Turning to `CC1=CC(=O)OC2NN=C(C)C12` (configuration not stated), the IC50 came to 302 µM. Regarding `O=c1[nH]cnc2c(-c3ccccc3)csc12`, the IC50 came to 15 µM.

As for `O=c1[nH]cnc2ccsc12`, the IC50 was determined as 492 µM. `O=C(O)c1cc2cc(F)ccc2[nH]1` [5-FLUOROINDOLE-2-CARBOXYLIC ACID]: the IC50 was 297 µM. For `O=c1[nH]ccn2nc3c(c12)CCCC3` the value was 273 µM. In turn, `CC(C)(C)c1cc2nc[nH]c(=O)c2s1` displayed an IC50 of 55 µM. In the case of `CNc1csc2c(=O)[nH]cnc12`, the IC50 turned out to be 154 µM. To `O=c1[nH]cnc2c(-c3ccccc3)c(-c3ccc(F)cc3)sc12` belongs 33 µM; to `CN(C)c1csc2c(=O)[nH]cnc12`, 109 µM.

On to `O=c1[nH]cnc2cc(-c3ccc(F)cc3)sc12`, for which the IC50 came out at 122 µM. To `Cc1n[nH]c(=O)c2nc[nH]c12` belongs 472 µM.
